For data set [1], the system named is CYP1A. The experiment in a line: in vitro. The following applies: nude, mouse; for activity at 10 min, 1 µM / activity at 10 min, 10 µM / activity at 10 min, 100 µM: pH 7.8, dermal CYP1A activity (% of control group); for inhibition at 10 min, 100 µM: pH 7.8, inhibition of dermal CYP1A activity. The text has this:
(§1) Nude mice were sacrificed by decapitation.
(§2) The precipitate containing the microsomes was obtained.

The subject of data set [2] is CYP1A. Briefly: in vitro. The settings on record: nude, mouse, pH 7.8.
Procedure: (§3) Nude mice were sacrificed by decapitation. The skin and liver were immediately removed and kept in ice bath or 4° C. […] Connective tissue, blood, and fat were carefully removed from the tissue. Excess water content was removed from the homogenized tissue by tissue papers before the tissue was weighed.
(§4) The suspension of homogenized tissue in potassium chloride solution was transferred into a Teflon pestle-glass homogenizer for homogenization for six (6) times. Then, potassium chloride solution was added into the homogenized suspension to bring the volume to about four (4) times of the homogenized suspension. The diluted suspension was 5 transferred into a centrifuge tube and centrifuged at 4° C., 9000 xg, for twenty (20) minutes. The supernatant containing microsomes from skin or liver tissue and other soluble substance were removed and the volume of the supernatant was brought up to four (4) times of the weight of the tissue by adding potassium chloride solution. The diluted supernatant was transferred into a centrifuge tube and centrifuged at 4° C., 100,000 xg, for one (1) hour (Beckman L8-80M). The precipitate containing the microsomes was obtained. Potassium chloride solution was added into the precipitate to bring the volume up to four (4) times of the weight of the tissue, and the suspension was centrifuged at 4° C., 100,000 xg for one (1) hour, to obtain the washed microsomes, which were stored at −78° C. in 0.1M KH2PO4-K2HPO4 buffer (pH=7.4).
(§5) The enzymatic activity of CYP1A was determined based on the activity of 7-ethoxyresorufin-O-deethylase (i.e., for CYP1A) and 7-methoxyresorufin-O-demethylase (i.e., CYP1A2). […] Except for the blank group, the reaction was triggered by adding 0.54 μM NADPH. In the test tube (16×100 mm), the reaction was carried out for ten (10) minutes at constant temperature (37° C.) with vibration and without light Methanol 2.5 ml was added into the reaction mixture to stop the reaction. Protein precipitate was removed from the reaction mixture by centrifuging the reaction mixture at 180 xg for ten (10) minutes. The supernatant was tested for florescent intensity with 550 nm as the excitation wavelength and 585 nm the emission wavelength. The florescent intensity was compared with 0.01 μM-0.1 μM standard Rhodamine B solution to obtain the reading of the CYP1A enzyme activity.
Data set [3] concerns liver CYP1A.
Procedure: as §3, §4, §5
For data set [4], the system named is dermal CYP1A. The experiment in a line: in vitro.
Text: as §1, §2

The source of these data is patent US20030166583A1, “Dermal cytochrome P450 1A inhibitors and enhancers” (priority 2002, published 2003).

Read-outs that look alike come from different tables or passages of the source.

As to `O=c1cc(-c2ccc(O)cc2)oc2cc(O)cc(O)c12` [Apigenin], in data set [1], the activity at 10 min, 1 µM was determined as 103%; the activity at 10 min, 10 µM turned out to be 97.2%; the activity at 10 min, 100 µM is 76.4%; the inhibition (usually the change of the read-out against control, counted positive when it falls) at 10 min, 100 µM was around 24%. In data set [2], the activity at 10 min, 1 µM came out at 118% and the activity at 10 min, 100 µM was 53.5%.
Take `O=c1cc(-c2ccccc2)oc2ccc3ccccc3c12` [Beta-NF, β-naphthoflavone]: the “liver CYP1A activity (% of control group)” value in data set [3] (1 µM) stood at 75.00%; in data set [3] (10 µM), 22.78%; in data set [3] (100 µM) it was 13.79%. Moreover, the “dermal CYP1A activity (% of control group)” value in data set [4] (1 µM) was determined as 27.41%; in data set [4] (10 µM), 24.00%; in data set [4] (100 µM) it was 3.76%.
As for `O=C(O)/C=C/c1ccccc1` [Trans-cinnamic acid], in data set [1], the activity at 10 min, 1 µM turned out to be 117%; the activity at 10 min, 10 µM was determined as 110%; the activity at 10 min, 100 µM amounted to 86.6%; the inhibition at 10 min, 100 µM was around 13%. Moreover, in data set [2], the activity at 10 min, 1 µM amounted to 109%; the activity at 10 min, 10 µM stood at 103%; the activity at 10 min, 100 µM amounted to 101%.
